Drawing on ChEMBL document CHEMBL5346898, “Triazole-fused pyrimidines in target-based anticancer drug discovery” (Eur J Med Chem, 2023), this text covers IC50, inhibition and T/C for 13 compounds.

For assay [1], the target named is T1, eIF-2-alpha kinase GCN2 (Homo sapiens, UniProt Q9P2K8). The experiment in a line: Inhibition of human GCN2 (unknown origin).
Assay [2] concerns the target T1, eIF-2-alpha kinase GCN2. The assay is described as follows: Inhibition of human recombinant GCN2 using eIF2alpha as substrate.
Assay [3] deals with Tubulin (Homo sapiens) (UniProt P68371+Q9H4B7+P0DPH7+P68366+Q13509+Q71U36+P04350+Q3ZCM7+P07437+P68363+Q9BQE3+Q6PEY2+Q13885+Q9BVA1+Q9BUF5). The experiment in a line: Inhibition of tubulin polymerization (unknown origin) at 10 uM by spectrophotometric analysis relative to control. In kind it is protein-complex assay.
The target in assay [4] is Tubulin. The experiment in a line: Inhibition of tubulin polymerization (unknown origin) by spectrophotometric analysis. In kind it is protein-complex assay, Homo sapiens.
The target of assay [5] is Polycomb protein EED (Homo sapiens, UniProt O75530). The experiment in a line: Inhibition of EED (unknown origin).
Sequence of Polycomb protein EED (O75530 whole entry): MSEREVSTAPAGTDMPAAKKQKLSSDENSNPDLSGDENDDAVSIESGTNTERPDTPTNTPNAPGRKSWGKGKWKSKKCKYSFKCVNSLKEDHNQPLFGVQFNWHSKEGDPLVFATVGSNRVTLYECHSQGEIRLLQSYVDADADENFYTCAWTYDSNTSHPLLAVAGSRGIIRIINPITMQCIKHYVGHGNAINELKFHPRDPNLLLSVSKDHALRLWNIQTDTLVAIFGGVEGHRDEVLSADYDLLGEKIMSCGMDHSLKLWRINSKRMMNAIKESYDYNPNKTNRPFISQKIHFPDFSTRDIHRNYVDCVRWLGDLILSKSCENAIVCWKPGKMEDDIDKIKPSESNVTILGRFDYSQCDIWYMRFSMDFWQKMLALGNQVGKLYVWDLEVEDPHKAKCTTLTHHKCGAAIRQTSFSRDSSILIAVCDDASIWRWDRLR
The test system of assay [6] is G-401. The assay is described as follows: Anticancer activity against human G-401 cells assessed as cell growth inhibition. In kind it is functional, cell-based.
Assay [7] deals with Tubulin. The experiment in a line: Inhibition of tubulin polymerization (unknown origin). In kind it is protein-complex assay, Homo sapiens.
In assay [8] the test system is SW620/AD300. The experiment in a line: Antitumor activity against […] SW620/AD300 cells xenografted in BALB/c nude mouse assessed as relative tumor proliferation rate at 100 mg/kg/day, IG measured after 15 days relative to control. The assay is classed as functional, Homo sapiens. To be noted: time 15 day.
Assay [9] deals with Lysine-specific histone demethylase 1A (Homo sapiens, UniProt O60341). The experiment in a line: Inhibition of LSD1 (unknown origin).
Assay [10] has as its target Ubiquitin carboxyl-terminal hydrolase 7 (Homo sapiens, UniProt Q93009). The assay is described as follows: Inhibition of USP7 (unknown origin).
Assay [11] deals with T2, Ubiquitin carboxyl-terminal hydrolase 28 (Homo sapiens, UniProt Q96RU2).
T2 sequence (Q96RU2 whole entry): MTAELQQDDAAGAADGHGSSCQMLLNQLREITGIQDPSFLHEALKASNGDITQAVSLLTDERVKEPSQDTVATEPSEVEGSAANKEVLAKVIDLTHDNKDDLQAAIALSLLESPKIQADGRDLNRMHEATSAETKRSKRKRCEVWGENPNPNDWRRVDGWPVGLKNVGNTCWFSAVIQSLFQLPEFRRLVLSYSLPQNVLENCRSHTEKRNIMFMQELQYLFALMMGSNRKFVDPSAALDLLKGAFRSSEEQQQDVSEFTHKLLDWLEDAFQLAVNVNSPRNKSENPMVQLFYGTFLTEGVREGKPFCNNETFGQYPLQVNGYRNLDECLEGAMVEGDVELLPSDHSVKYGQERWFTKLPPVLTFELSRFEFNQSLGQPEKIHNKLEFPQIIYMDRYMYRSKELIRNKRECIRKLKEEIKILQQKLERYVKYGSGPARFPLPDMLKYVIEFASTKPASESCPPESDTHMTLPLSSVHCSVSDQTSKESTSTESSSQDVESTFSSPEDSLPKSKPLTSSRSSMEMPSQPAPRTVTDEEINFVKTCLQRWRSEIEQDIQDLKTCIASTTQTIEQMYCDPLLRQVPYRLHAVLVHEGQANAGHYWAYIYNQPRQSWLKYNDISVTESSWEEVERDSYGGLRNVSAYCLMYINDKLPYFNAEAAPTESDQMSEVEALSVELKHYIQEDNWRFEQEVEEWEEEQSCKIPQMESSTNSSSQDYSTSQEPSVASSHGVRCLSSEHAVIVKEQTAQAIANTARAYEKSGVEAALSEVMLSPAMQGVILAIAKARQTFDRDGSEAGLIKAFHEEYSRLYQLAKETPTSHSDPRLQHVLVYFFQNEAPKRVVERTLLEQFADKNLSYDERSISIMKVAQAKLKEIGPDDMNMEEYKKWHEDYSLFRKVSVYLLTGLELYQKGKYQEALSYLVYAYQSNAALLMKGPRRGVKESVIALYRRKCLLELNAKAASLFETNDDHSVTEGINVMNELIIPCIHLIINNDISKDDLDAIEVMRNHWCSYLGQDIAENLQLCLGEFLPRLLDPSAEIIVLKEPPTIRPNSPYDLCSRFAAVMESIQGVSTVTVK
The assay is described as follows: Inhibition of USP28 (unknown origin).

The nature of assay [12]: Anticancer activity against human A2780AD cells assessed as cell growth measured after 48 hrs by MTT assay. The assay is classed as functional, cell-based.
Assay [13] relates to A2780. The assay is described as follows: Anticancer activity against human A2780 cells assessed as cell growth measured after 48 hrs by MTT assay. In kind it is functional, cell-based. To be noted: A2780, 48 h.

The structures appear in SMILES notation.

T1 sequence (Q9P2K8 whole entry): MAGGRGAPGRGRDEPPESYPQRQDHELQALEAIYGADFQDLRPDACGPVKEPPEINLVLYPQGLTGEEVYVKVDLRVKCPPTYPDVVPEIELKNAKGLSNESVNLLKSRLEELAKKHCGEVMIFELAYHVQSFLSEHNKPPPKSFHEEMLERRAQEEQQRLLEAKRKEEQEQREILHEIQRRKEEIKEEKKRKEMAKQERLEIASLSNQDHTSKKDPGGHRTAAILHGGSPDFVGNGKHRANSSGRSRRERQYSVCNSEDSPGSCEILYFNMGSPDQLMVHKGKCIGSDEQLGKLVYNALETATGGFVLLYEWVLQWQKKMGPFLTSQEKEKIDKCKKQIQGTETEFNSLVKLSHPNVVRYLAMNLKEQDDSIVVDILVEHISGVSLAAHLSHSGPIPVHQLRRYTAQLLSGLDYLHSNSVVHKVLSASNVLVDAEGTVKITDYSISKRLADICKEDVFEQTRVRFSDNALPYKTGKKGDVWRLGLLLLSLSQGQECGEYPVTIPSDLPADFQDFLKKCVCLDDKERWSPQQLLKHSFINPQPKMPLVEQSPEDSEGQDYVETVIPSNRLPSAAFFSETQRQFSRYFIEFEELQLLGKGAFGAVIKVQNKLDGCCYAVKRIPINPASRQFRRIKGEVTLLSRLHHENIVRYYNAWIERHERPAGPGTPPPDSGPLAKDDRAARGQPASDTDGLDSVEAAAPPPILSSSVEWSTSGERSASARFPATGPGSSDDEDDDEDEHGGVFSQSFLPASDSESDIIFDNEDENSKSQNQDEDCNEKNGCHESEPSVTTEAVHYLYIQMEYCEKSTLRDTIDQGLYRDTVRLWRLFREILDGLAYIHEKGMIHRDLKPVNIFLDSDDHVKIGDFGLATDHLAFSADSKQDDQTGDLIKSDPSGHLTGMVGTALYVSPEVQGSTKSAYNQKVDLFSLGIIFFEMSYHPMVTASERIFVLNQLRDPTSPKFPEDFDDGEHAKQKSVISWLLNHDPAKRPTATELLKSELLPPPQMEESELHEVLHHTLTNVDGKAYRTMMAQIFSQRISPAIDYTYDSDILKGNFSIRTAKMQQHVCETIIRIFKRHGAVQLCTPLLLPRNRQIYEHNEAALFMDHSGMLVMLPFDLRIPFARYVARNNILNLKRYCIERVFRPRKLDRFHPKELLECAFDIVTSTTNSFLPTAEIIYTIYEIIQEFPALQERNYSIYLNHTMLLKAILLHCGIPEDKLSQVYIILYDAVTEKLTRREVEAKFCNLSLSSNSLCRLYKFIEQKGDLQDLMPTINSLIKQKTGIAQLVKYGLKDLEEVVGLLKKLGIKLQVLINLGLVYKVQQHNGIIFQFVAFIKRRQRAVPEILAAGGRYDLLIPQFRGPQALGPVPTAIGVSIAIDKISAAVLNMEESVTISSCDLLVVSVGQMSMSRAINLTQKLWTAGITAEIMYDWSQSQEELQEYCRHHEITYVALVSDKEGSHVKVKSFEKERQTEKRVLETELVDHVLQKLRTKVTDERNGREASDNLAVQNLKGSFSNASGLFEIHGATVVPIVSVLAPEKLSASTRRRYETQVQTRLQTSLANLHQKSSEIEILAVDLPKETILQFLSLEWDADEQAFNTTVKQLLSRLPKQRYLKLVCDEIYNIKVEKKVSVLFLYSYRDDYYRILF
Sequence of Ubiquitin carboxyl-terminal hydrolase 7 (Q93009 whole entry): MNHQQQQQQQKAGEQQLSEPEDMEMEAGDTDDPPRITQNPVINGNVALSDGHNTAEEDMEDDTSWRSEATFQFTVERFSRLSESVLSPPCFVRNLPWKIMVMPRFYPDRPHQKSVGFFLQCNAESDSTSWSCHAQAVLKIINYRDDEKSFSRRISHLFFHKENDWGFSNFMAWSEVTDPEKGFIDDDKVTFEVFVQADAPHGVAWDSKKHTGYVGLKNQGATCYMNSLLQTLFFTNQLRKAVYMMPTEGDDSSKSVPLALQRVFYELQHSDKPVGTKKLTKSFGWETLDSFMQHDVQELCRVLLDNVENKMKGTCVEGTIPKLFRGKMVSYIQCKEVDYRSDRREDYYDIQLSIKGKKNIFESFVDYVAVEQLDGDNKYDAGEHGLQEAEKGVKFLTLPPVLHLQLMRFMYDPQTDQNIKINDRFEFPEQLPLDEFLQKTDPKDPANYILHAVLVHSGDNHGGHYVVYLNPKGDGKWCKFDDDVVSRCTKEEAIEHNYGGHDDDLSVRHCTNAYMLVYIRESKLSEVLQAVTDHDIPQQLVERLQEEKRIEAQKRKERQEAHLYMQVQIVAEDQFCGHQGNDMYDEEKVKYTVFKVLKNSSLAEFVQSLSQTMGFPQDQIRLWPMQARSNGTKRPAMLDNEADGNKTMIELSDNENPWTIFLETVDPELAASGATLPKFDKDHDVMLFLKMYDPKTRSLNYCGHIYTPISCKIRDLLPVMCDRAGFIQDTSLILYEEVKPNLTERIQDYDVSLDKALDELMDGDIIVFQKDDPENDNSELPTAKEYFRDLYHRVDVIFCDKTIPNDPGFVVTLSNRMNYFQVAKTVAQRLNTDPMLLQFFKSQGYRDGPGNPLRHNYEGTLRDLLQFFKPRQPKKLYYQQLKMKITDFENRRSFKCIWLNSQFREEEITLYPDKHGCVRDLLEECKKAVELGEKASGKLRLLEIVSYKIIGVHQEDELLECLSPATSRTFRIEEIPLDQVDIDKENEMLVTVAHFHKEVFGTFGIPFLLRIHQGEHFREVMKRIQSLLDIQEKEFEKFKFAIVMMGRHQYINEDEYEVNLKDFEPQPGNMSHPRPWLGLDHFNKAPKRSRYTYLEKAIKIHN

Take `c1nn(C2CCOCC2)cc1Nc1ncc2nnn(-c3ccc4cn[nH]c4c3)c2n1`: the half-maximal inhibitory concentration (IC50) in assay [1] is < 300 nM.
Regarding `COc1ccc(-n2nnc3cnc(Nc4ccc(N)c(C)c4)nc32)cc1`, the concentration for half-maximal inhibition (IC50) in assay [2] worked out at 4 nM.
In assay [3], `COc1cc(-c2nc3nc(C)c(C(C)=O)c(-c4ccc([N+](=O)[O-])cc4)n3n2)cc(OC)c1OC` yielded an inhibition of 42%.
For `CCOc1ccc(-n2nnc3cnc(Nc4cnn(C5CCOCC5)c4)nc32)cc1`, the IC50 in assay [1] was found to be 16 nM.
In assay [4], `COc1ccc(-c2c(C(C)=O)c(C)nc3nc(-c4cc(OC)c(OC)c(OC)c4)nn23)cc1[N+](=O)[O-]` returned a half-inhibitory concentration (IC50) of 9900 nM.
`Cc1ncccc1-c1cnc(NCc2c(F)cc(N)c3c2CCO3)n2cnnc12`: in assay [5], the IC50 is 50 nM.
For the compound `CS(=O)(=O)c1ccc(-c2cnc(NCc3ccco3)n3cnnc23)cc1`, the IC50 amounted to 85000 nM in assay [6] and 30 nM in assay [5].
Consider `COc1cc(-c2cc(-c3ccc(Cl)cc3)nc3nc(N)nn23)cc(OC)c1OC`, for which the half-inhibitory concentration (IC50) in assay [7] turned out to be 3840 nM.
Take `Cc1cc(Nc2ccccc2)n2nc(SCc3nc4ccccc4[nH]3)nc2n1`: the T/C in [8] is 29.7%.
For `CCCSc1nc(NCCN)c2nnn(Cc3ccc(Cl)cc3)c2n1`, the IC50 was > 100000 nM in assay [9], > 100000 nM in assay [10] and 1100 nM in [11].
Regarding `Cc1cc(Nc2ccc(F)cc2)n2nc(NCCCc3ccccc3)nc2n1`, the 50% inhibitory concentration (IC50) in assay [7] was found to be 390 nM.
Turning to `N#Cc1c2c(c3nncn3c1NCc1ccco1)CN(Cc1ccccc1)CC2`, in assay [6], the concentration for half-maximal inhibition (IC50) worked out at 3280 nM.
As to `CO[C@H]1C[C@H]2CC[C@@H](C1)N2c1c(-c2c(F)cc(F)cc2F)c(Cl)nc2ncnn12`, the IC50 in assay [12] stood at 81 nM; in assay [13] it was 51 nM.
